Series [1] deals with T1, Cysteinyl leukotriene receptor 1 (Cavia porcellus, UniProt Q2NNR5).
T1 sequence (Q2NNR5 whole entry): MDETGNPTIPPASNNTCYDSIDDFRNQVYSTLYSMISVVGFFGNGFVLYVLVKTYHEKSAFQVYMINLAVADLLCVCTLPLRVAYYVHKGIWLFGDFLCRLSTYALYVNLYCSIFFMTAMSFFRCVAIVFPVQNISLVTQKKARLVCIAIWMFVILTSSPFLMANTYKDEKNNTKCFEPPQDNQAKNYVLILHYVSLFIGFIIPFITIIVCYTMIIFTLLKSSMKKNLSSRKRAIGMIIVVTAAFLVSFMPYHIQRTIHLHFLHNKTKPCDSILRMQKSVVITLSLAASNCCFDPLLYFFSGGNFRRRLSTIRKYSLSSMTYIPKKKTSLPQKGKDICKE
The experiment in a line: Inhibitory activity against binding of [3H]LTD4 to Cysteinyl leukotriene D4 receptor in guinea pig lung membranes. It is filed as cell membranes, Membrane.

The nature of series [2]: Compound was tested for plasma clearance in rats after 5 mg/kg of intravenous dosing. Particulars: rat. It is filed as ADME, organism-based. Also on record: dose 5 mg/kg, route intravenous.
Series [3] can be described thus: Apparent bioavailability in squirrel monkey was determined. The following applies: in vivo; read-out: Bioavailabiility. It is filed as ADME, organism-based.

Our source for the IC50, clearance and bioavailability values is ChEMBL document CHEMBL1127238, “The discovery of L-699,392, a novel potent and orally active leukotriene D4 receptor antagonist” (Bioorg Med Chem Lett, 1994).

The structures appear in SMILES notation.

For orientation: IC50 means the point on the concentration scale where inhibition reaches its midpoint. A word on the clearance: it is the volume of plasma or blood freed of the substance per unit of time.

On to `CC(=O)c1ccccc1CC[C@H](SC[C@@H](C)C(=O)O)c1cccc(/C=C/c2ccc3ccc(Cl)cc3n2)c1`, for which the 50% inhibitory concentration (IC50) in series [1] is 3 nM. For the same compound, the clearance in series [2] turned out to be 11 mL/min/kg. For the same compound, the bioavailability in series [3] came out at 52%.

Take `C[C@H](CS[C@@H](CCc1ccccc1C(C)(C)O)c1cccc(/C=C/c2ccc3ccc(Cl)cc3n2)c1)C(=O)O`: in series [1], the concentration for half-maximal inhibition (IC50) came out at 2.7 nM. This compound also returned a clearance in series [2] of 14 mL/min/kg.

For the compound `C[C@H](CS[C@@H](CCc1ccccc1CO)c1cccc(/C=C/c2ccc3ccc(Cl)cc3n2)c1)C(=O)O`, the IC50 in series [1] is 3.1 nM. For the same compound, the clearance in series [2] is 5 mL/min/kg.

With `C[C@H](CS[C@@H](CCc1ccccc1C(=O)c1ccccc1)c1cccc(/C=C/c2ccc3ccc(Cl)cc3n2)c1)C(=O)O`, the IC50 in series [1] was 4.3 nM. In series [2], the clearance came out at 18 mL/min/kg.

As to `C[C@H](CS[C@@H](CCc1ccccc1CC(C)(C)O)c1cccc(/C=C/c2ccc3ccc(Cl)cc3n2)c1)C(=O)O`, the IC50 in series [1] was 1 nM. In addition, the clearance in series [2] is 33 mL/min/kg.

In series [1], `CCOC(=O)c1ccccc1CC[C@H](SC[C@@H](C)C(=O)O)c1cccc(/C=C/c2ccc3ccc(Cl)cc3n2)c1` gave a half-inhibitory concentration (IC50) of 3.7 nM. In series [2], this compound showed a clearance of 4.8 mL/min/kg.

As to `COC(=O)c1cccc(CC[C@H](SC[C@@H](C)C(=O)O)c2cccc(/C=C/c3ccc4ccc(Cl)cc4n3)c2)c1`, the concentration for half-maximal inhibition (IC50) in series [1] came out at 7 nM. Besides, the clearance in series [2] is 6 mL/min/kg.

Compound `CCC(=O)c1ccccc1CC[C@H](SC[C@@H](C)C(=O)O)c1cccc(/C=C/c2ccc3ccc(Cl)cc3n2)c1` yielded an IC50 in series [1] of 3.7 nM. For the same compound, the clearance in series [2] was 13 mL/min/kg.

Take `CC(=O)c1cccc(CC[C@H](SC[C@@H](C)C(=O)O)c2cccc(/C=C/c3ccc4ccc(Cl)cc4n3)c2)c1`: the IC50 in series [1] was found to be 5.9 nM. In series [2], this compound returned a clearance of 2 mL/min/kg.

`C[C@H](CS[C@@H](CCc1cccc(CO)c1)c1cccc(/C=C/c2ccc3ccc(Cl)cc3n2)c1)C(=O)O`: the concentration for half-maximal inhibition (IC50) in series [1] was 2.1 nM. Also, the clearance in series [2] was determined as 2.5 mL/min/kg.

The compound `C[C@H](CS[C@@H](CCc1ccccc1C=O)c1cccc(/C=C/c2ccc3ccc(Cl)cc3n2)c1)C(=O)O` returned an IC50 in series [1] of 2 nM. The clearance in series [2] was determined as 6 mL/min/kg.
